Values of other authors, collected in PMC9710334 (BMJ Open Gastroenterology, 2022).

B1: vantictumab: Wnt pathway inhibitor (antibody, chains of the INN, looked up, V domains shown)
VH: EVQLVESGGGLVQPGGSLRLSCAASGFTFSHYTLSWVRQAPGKGLEWVSVISGDGSYTYYADSVKGRFTISSDNSKNTLYLQMNSLRAEDTAVYYCARNFIKYVFANWGQGTLVTVSS
VL: DIELTQPPSVSVAPGQTARISCSGDNIGSFYVHWYQQKPGQAPVLVIYDKSNRPSGIPERFSGSNSGNTATLTISGTQAEDEADYYCQSYANTLSLVFGGGTKLTVL

Assays:
[1] = tested on: patients with PBC; settings: approximately ref 1 3; cited from earlier work
[2] = tested on: treated patients; settings: treated patients ref 37 38; cited from earlier work

| Molecule | patients without an optimal biochemical response [1] | risk for fragility fractures [2] |
| --- | --- | --- |
| C[C@H](CCC(=O)O)[C@H]1CC[C@H]2[C@@H]3[C@@H](O)C[C@@H]4C[C@H](O)CC[C@]4(C)[C@H]3CC[C@]12C [UDCA, ursodeoxycholic acid] | 30%–40% |  |
| B1 |  | increased risk for fragility fractures |
